Laboratory results published in patent publication US20240139220A1, “TREATMENT OF HPV INFECTION” (priority 2022, published 2024).
Where two headings read alike, the source gives them in different places.

How the values were obtained:
[1] = system: C33A cells; assay: In vitro cytotoxicity, XTT, five days; conditions: read-out: C33A CC50
Procedure: (§1) Three compounds (Compound I, Compound II and Compound III) were solubilized at 40 mM in DMSO and stored at −20° C. The test compounds were evaluated using a high test concentration of 50 μM. Serial half-logarithmic dilutions were performed for the in vitro cytotoxicity assays.
(§2) Cells listed in Table 70 were enumerated by Trypan Blue Dye exclusion method and seeded in the interior wells of a 96 well flat bottom microtiter plate at 100 μL/well. Proliferating cells were incubated overnight at 37° C./5% CO2 to allow the cells to adhere to the plates at approximately 70% confluency. Tissue culture medium was removed and replaced with 100 μL/well of fresh medium. One-hundred microliters (100 μL) of each compound at six concentrations was transferred to the 96-well plate containing the cells in triplicate. Table 70 lists the cell line, type of cell, source of cell stock, base tissue culture medium supplemented with 10% fetal bovine serum, 2 mM L-glutamine, 100 U/mL penicillin and 100 μg/mL streptomycin, and microtiter plate seeding density.
(§3) Following incubation at 37′C in a 5% CO2 incubator for five days, the test plates were stained with the tetrazolium dye XTT (2,3-bis(2-methoxy-4-nitro-5-sulfopheny1)-5-[(phenylamino)carbonyl]-2H-tetrazolium hydroxide). XTT-tetrazolium was metabolized by the mitochondrial enzymes of metabolically active cells to a soluble formazan product. XTT solution was prepared daily as a stock of 1 mg/ml in RPM11640. Phenazine methosulfate (PMS) solution was prepared at 0.15 mg/ml in PBS and stored in the dark at −20° C. XTT/PMS stock was prepared immediately before use by adding 40 μL of PMS per ml of XTT solution. Fifty microliters of XTT/PMS were added to each well of the plate and the plate was reincubated for 4 hours at 37° C. Plates were sealed with adhesive plate sealers and shaken gently or inverted several times to mix the soluble formazan product and the plate was read spectrophotometrically at 450/650 nm with a Molecular Devices Vmax plate reader.
(§4) Microsoft Excel 2010 was used to analyze and graph the raw data. CCso (50% reduction in cell viability) values are tabulated and provided. Raw data for cytotoxicity with a graphic representation of the data are provided in a printout summarizing the compound effect on cell viability.
(§5) Compounds I, II, and III were evaluated for cytotoxicity to proliferating Hs27, HeLa, C33A and HEK293 cells by measuring cell viability using XTI tetrazolium dye following five days in culture (Table 71).

[2] = system: HeLa cells; assay: In vitro cytotoxicity, XTT, five days
Procedure: as §1, §2, §3, §4, §5

[3] = system: Hs27 cells; assay: In vitro cytotoxicity, XTT, five days
Procedure: as §1, §2, §3, §4, §5

[4] = system: HEK293 cells
Procedure: as §1
Cells listed in Table 70 were enumerated by Trypan Blue Dye exclusion method and seeded in the interior wells of a 96 well flat bottom microtiter plate at 100 μL/well. Proliferating cells were incubated overnight at 37° C./5% CO2 to allow the cells to adhere to the plates at approximately 70% confluency. Tissue culture medium was removed and replaced with 100 μL/well of fresh medium. […]
Following incubation at 37′C in a 5% CO2 incubator for five days, the test plates were stained with the tetrazolium dye XTT (2,3-bis(2-methoxy-4-nitro-5-sulfopheny1)-5-[(phenylamino)carbonyl]-2H-tetrazolium hydroxide). […] Plates were sealed with adhesive plate sealers and shaken gently or inverted several times to mix the soluble formazan product and the plate was read spectrophotometrically at 450/650 nm with a Molecular Devices Vmax plate reader. […]
as §5

[5] = Hygroscicity by Dynamic Vapor Sorption (DVS) at 25° C.; assay type: physicochemical
Procedure: Hygroscopicity was investigated by DVS at 25° C., using the following method: […]

[6] = Ex vivo permeation and penetration across porcine vaginal tissue (Franz diffusion cells, IVPT); assay type: in vitro ADME; conditions: porcine vaginal tissue, FIG. 116; Compound II 0.1% gel, ABI-1968 1% and 3% formulations
Description: (§6) FIG. 116 is an in vitro tissue permeation test in vaginal tissue comparing Compound II to ABI-1968. […] Bars B and C show the tissue penetration of a 0.1% Compound II gel in […]. […] This may be a contributing factor to the performance of ABI-1968 in clinical studies. […] This is described in Example 41.
Freshly harvested porcine vaginal tissue was procured from local slaughterhouse in an ice box. The vaginal tissue was cut open to expose the mucosal surface and tissue was cleaned by gentle flow of PBS pH 7.4. The porcine vaginal tissue was cut into circular portions (approximately 2 cm^2) with help of a […] punch.
The circular portion of tissue was sandwiched between two chambers of a Franz diffusion cell with an active diffusion area of 1 cm^2, and the mucosal layer was exposed to the donor chambers. The resistance across porcine vaginal tissue was measured using a wave form generator to ensure the integrity of the tissue segment used for the permeation study. Porcine vaginal tissue with resistance of ≥3 KΩ.cm^2 was used for study. The receiver chamber was filled with 8 ml of 5% solutol PBS 7.4 pH, which was stirred at 600 rpm with a 3 mm magnetic stir bar and the temperature was maintained at 37° C. with a circulating water bath.
The ˜200 mg of gel was filled into tared 1 mL syringe and gel was dispensed to donor chamber. The gel was spread on to mucosal surface with pre weighed applicator. After loading and spreading of the gel onto surface of mucosal surface, the weight of 1 mL syringe and applicator was noted to determine the exact amount of gel loaded into donor chamber.
Time course (2 h, 4 h and 8 h) porcine vaginal permeation studies were performed. After loading gel, 500 μL samples were withdrawn from the receiver compartment at different time intervals and each time an equal volume of fresh receiver media was used to replace withdrawn samples. The sample withdrawn at each time interval were stored immediately in −20° C. until analysis. After 2, 4 and 8 h, the formulation was removed from the donor chamber with help of syringe and cleaned with cotton swab. The tissue was removed and washed gently with wash solution (50% methanol in water) 5 times and alternatively cleaning with cotton swab.
An 8 mm punch of active diffusion area of washed porcine vaginal tissue was removed, weighed and transferred into a tube. This tube was immediately placed into dry ice for ˜15 min. After specified time, tissue was removed and placed in precooled dish. The tissue was minced into smaller pieces on a dish with a precooled surgical blade. The minced tissue was transferred to sample tubes and dish was rinsed with 1 ml of 5% solutol in PBS 7.4 pH and transferred to same tissue sample tube. These tubes were stored in −70° C. until analysis.
The samples stored at −20° C. was removed and thawed at room temperature for 30 min. The drug from receptor fluid was centrifuged at 13000 rpm for 5 min and to 200 μL of supernatant equal volume of extraction solvent was added. These samples were centrifuged at 13000 rpm for 5 min and supernatant was transferred into vials for analysis.
The minced tissue samples stored at −70° C. were removed and thawed at room temperature for ˜90 min. The samples were kept for shaking at room temperature for 4 h in BioShaker. After 4 h, samples were centrifuged at 13000 rpm for 5 min. To 100 μL of supernatant, 400 μL of extraction solvent was added and vortexed for 2 min. […]

[7] = In vitro tissue permeation test in human cervical tissue; assay type: in vitro ADME; conditions: 0.1% gel, FIG. 116
Description: as §6

SMILES	CC50 [1]	CC50 [2]	CC50 [3]	CC50 [4]	CC50 ([2]; read-out: HeLa CC50, HeLa cells, XTT, five days)	CC50 ([3]; read-out: Hs27 CC50, Hs27 cells, XTT, five days)	XRPD pattern after humidity cycle ([5]; cycle of 40-0-95-0-45% relative humidity)	Water content retained ([5]; exposed to a cycle of 40-0-95-0-45% relative humidity)	Tissue penetration [6]	Tissue penetration [7]
CCOC(=O)C(C)NP(=O)(COCCn1cnc2c(OC)nc(N)nc21)OCc1ccccc1 (single isomer, unassigned; isomer 2) [ABl2280 Isomer 2]	< 160 nM	16.9 µM	7.62 µM	< 160 nM	–	–	–	–	–	–
CCOC(=O)C(C)NP(=O)(COCCn1cnc2c(OC)nc(N)nc21)OCc1ccccc1 (mixture of isomers) [ABl2280]	280 nM	–	–	–	18.6 µM	22.9 µM	–	–	–	–
CCOC(=O)C(C)NP(=O)(COCCn1cnc2c(OC)nc(N)nc21)OCc1ccccc1 (single isomer, unassigned; isomer 1) [ABl2280 Isomer 1]	200 nM	15.1 µM	23.2 µM	< 160 nM	–	–	–	–	–	–
CCOC(=O)[C@H](C)N[P@@](=O)(COCCn1cnc2c(OC)nc(N)nc21)OCc1ccccc1.O=C(O)/C=C/C(=O)O [Compound II]	–	–	–	–	–	–	does not change	about 0.25%	high tissue penetration	high tissue penetration
